Results: patent US7141595B2, “Amino benzothiazole compounds with NOS inhibitory activity” (Neuraxon Inc., priority 2002, dated 2006)
Counter-ions that a name gives are not always drawn.

How the values were obtained:
eNOS = target: T1, eNOS (UniProt P29473); assay: eNOS enzyme assay (hemoglobin capture assay); assay type: biochemical; conditions: initial velocity, read-out: IC50 of NOS, eNOS
T1 sequence (P29473 1-1205): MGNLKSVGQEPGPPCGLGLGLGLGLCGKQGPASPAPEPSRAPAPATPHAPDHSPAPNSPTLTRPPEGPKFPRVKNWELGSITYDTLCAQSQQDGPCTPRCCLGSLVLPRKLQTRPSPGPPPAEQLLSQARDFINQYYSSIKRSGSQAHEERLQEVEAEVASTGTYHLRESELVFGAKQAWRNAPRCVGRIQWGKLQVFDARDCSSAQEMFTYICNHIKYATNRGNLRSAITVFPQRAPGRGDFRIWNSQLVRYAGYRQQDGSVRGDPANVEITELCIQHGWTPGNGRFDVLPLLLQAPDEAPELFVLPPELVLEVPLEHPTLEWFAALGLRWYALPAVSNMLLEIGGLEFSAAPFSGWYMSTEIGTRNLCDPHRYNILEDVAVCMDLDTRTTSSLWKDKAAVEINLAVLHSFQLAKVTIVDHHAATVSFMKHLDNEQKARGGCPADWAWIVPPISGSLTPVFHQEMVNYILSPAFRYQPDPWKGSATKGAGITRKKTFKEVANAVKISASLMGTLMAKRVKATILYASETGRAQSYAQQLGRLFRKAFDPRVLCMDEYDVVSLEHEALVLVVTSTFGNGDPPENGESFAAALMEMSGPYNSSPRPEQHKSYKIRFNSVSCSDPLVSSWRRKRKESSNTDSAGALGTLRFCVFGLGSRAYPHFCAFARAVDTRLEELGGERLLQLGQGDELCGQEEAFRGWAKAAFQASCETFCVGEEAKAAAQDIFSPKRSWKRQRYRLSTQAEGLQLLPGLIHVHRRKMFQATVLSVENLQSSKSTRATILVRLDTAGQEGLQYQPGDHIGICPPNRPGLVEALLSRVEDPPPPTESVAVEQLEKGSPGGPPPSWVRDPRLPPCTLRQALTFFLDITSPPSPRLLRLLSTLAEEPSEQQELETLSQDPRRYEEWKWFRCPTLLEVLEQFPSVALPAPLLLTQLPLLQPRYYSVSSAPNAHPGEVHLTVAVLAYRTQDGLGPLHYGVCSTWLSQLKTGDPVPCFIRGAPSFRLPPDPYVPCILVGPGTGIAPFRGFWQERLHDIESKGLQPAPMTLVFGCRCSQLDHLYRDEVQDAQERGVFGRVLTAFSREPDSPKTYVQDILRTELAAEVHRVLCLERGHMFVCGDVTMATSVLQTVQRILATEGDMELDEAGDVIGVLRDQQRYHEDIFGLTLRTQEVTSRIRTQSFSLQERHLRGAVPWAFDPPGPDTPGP
Method: The generation of nitric oxide by NOS was measured using the hemoglobin capture assay (Proc. Natl. Acad. Sci., U.S.A. 1990, 87, 714; Huang et al. J. Med. Chem. 2000, 43, 2938). An assay mixture for nNOS contained 10 mM L-arginine, 1.6 mM CaCl2, […] calmoduline, […], 6.5 mM BH4 and 3 mM oxyhemoglobin in 100 mM Hepes (pH 7.5). The reaction mixture for iNOS contained 10 mM of L-arginine, […], 6.5 mM BH4 and 3 mM oxyhemoglobin in 100 mM Hepes (pH 7.5). All assays were in a final volume of […] and were initiated with enzyme. Nitric oxide reacts with oxyhemoglobin to yield methehemoglobin which is detected at 401 nm (ε=19,700 M^−1cm^−1) on a Perkin-Elmer Lamda 10 UV/vis spectrophotometer.
(§1) IC50 and percent inhibition of NOS by the compounds of the invention were determined under initial velocity measurement condition with hemoglobin capture assay as described above using varying concentrations of the compounds of the invention.

iNOS = target: T2, iNOS (UniProt P29477); assay: iNOS enzyme assay (hemoglobin capture assay); assay type: biochemical; conditions: initial velocity, read-out: IC50 of NOS, iNOS
T2 sequence (P29477 1-1144): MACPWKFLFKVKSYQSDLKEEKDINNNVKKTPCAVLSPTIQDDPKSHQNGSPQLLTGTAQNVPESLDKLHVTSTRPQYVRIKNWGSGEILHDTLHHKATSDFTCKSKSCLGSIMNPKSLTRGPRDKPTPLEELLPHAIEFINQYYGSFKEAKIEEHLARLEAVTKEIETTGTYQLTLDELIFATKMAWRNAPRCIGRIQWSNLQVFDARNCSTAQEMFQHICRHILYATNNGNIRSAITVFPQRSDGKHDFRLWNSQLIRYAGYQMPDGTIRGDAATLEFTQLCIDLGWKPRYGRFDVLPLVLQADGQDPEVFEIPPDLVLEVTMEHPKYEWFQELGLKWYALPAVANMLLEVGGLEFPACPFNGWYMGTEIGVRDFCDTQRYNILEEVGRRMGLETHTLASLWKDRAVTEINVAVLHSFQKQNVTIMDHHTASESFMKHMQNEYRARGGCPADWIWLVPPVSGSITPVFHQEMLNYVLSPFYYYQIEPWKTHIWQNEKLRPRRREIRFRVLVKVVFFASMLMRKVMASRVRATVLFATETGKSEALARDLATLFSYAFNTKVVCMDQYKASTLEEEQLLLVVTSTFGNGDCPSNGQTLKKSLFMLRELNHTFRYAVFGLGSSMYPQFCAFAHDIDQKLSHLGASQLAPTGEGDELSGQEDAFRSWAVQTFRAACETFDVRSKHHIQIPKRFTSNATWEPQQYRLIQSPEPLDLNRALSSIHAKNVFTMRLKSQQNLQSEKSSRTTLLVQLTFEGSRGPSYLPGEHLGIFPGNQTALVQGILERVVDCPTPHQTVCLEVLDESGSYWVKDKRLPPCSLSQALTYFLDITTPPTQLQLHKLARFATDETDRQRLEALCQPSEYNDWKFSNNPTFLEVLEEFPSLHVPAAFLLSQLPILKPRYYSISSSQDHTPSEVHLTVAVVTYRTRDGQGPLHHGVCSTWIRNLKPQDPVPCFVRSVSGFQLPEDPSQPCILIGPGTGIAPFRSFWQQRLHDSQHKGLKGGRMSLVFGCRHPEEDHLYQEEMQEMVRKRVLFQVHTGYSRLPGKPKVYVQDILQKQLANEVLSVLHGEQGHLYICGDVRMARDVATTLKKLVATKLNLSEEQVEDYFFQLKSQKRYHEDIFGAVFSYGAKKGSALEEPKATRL
Method: (§2) The reaction mixture for iNOS contained 10 mM of L-arginine, […], 6.5 mM BH4 and 3 mM oxyhemoglobin in 100 mM Hepes (pH 7.5). All assays were in a final volume of […] and were initiated with enzyme.
as §1

nNOS = nNOS (UniProt P29476); assay: nNOS enzyme assay (hemoglobin capture assay); assay type: biochemical; conditions: initial velocity, read-out: IC50 of NOS, nNOS
Method: as §2, §1

[1] = tested on: Rat cortical neuronal cultures; assay: Neuroprotection of rat cortical cells against NMDA challenge; assay type: cell-based; conditions: 25 μM NMDA 30 minutes; 60-minute pre-incubation; % cell death by propidium iodide after 24 hrs
Method: Rat cortical neuronal cultures were exposed for 30 minutes to 25 μM NMDA in buffer with or without the test compounds according to previously reported procedures (J. Neurosci. 2000 October 1; 20(19):7183–92). Test compounds were added for a 60-minute pre-incubation period in order to maximize the chance of seeing neuroprotection. After 24 hrs cultures were treated with propidium iodide and the % cell death determined.

| SMILES | IC50 (eNOS) [µM] | IC50 (iNOS) [µM] | IC50 (nNOS) [µM] | neuroprotection during NMDA challenge [1] |
| --- | --- | --- | --- | --- |
| CSC(=N)Nc1ccc2nc(N)sc2c1 [Example 4, N-(2-Amino-benzothiazol-6-yl)-2-methylthiocarboximidamide] | 83.3 | 327 | 4.2 | – |
| N=C(Nc1ccc2nc(N)sc2c1)c1cccs1 [Example 9, N-(2-Amino-benzothiazol-6-yl)-2-thiophenecarboximidamide] | 119 | – | – | – |
| N=C(Nc1ccc2nc(NCCN3CCCC3)sc2c1)c1cccs1 [Example 13, N-[2-(2-pyrrolidin-1-ylethylamino)-benzothiazol-6-yl]-2-thiophenecarboximidamide] | 100 | 125 | 11.9 | – |
| Nc1nc2cc(NC(=S)NC(=O)c3ccccc3)ccc2s1 [Example 17, 1-(2-Amino-benzothiazol-5-yl)-3-benzoyl-thiourea] | 94 | 275 | 32.1 | – |
| NC(=S)Nc1ccc2sc(N)nc2c1 [Example 18, (2-Amino-benzothiazol-5-yl)-thiourea] | 145 | 123 | 57.8 | – |
| N=C(Nc1ccc2sc(N)nc2c1)c1cccs1 [Example 20, N-(2-Amino-benzothiazol-5-yl)-thiophene-2-carboxamidine hydrobromide] | 169 | 73 | – | – |
| N=C(Nc1ccc2nc(NCCc3cnc[nH]3)sc2c1)c1cccs1 [Example 36(e), N-{2-[2-(3H-Imidazol-4-yl)-ethylamino]-benzothiazol-6-yl}-thiophene-2-carboxamidine] | – | – | – | neuroprotection observed |
| N=C(Nc1ccc2nc(NCCc3ccc(Br)cc3)sc2c1)c1cccs1 [Example 36b, N-{2-[2-(4-Bromo-phenyl)-ethylamino]-benzothiazol-6-yl}-thiophene-2-carboxamidine] | 110 | 91 | 1.46 | – |
| N=C(Nc1ccc2nc(NC3CCN(Cc4ccccc4)CC3)sc2c1)c1cccs1 [Example 36d, N-[2-(1-Benzyl-piperidin-4-ylamino)-benzothiazol-6-yl]-thiophene-2-carboxamidine] | 210 | 163 | 1.6 | – |
| N=C(Nc1ccc2nc(NCCN3CCOCC3)sc2c1)c1cccs1 [Example 36f, N-[2-(2-Morpholin-4-yl-ethylamino)-benzothiazol-6-yl]-thiophene-2-carboxamidine] | > 300 | > 300 | – | neuroprotection observed |
